This note sets out measurements from publication PMC6680314, “Characterization of the recombinant Brettanomyces anomalus β‐glucosidase and its potential for bioflavouring” (Journal of Applied Microbiology, 2016).

The test system of experiment [1] is T1, B. anomalus β-glucosidase (YV396 β-glucosidase).
T1 construct: gene GH3 beta-glucosidase; full gene (2523 bp incl. stop, about 840 residues), codon optimised, pET28-YV396-His6, tag kept, E. coli BL21(DE3), Ni-Sepharose and Superdex 200
The experiment in a line: glucose release, GOD-PAP assay at […] nm, Michaelis-Menten fit. The format is biochemical, Brettanomyces anomalus. As to conditions: McIlvaine buffer pH 5.75, 37 °C (optimum of this enzyme); free enzyme; read-out: pH 5.75 37°C / K M.

A further experiment concerns T2, almond β-glucosidase.
T2 construct: gene GH1 beta-glucosidase
The description is as above. It is filed as biochemical, Prunus dulcis. As to conditions: McIlvaine buffer pH 5.75, 37 °C; commercial preparation; read-out: pH 5.75 37°C / K M.

As to `N#C[C@H](O[C@@H]1O[C@H](CO[C@@H]2O[C@H](CO)[C@@H](O)[C@H](O)[C@H]2O)[C@@H](O)[C@H](O)[C@H]1O)c1ccccc1` [amygdalin], the Km in experiment [1] turned out to be 1 ± 0.05 mM; in the experiment on almond β-glucosidase, 10.1 ± 0.13 mM.
The matching figures for `OC[C@H]1O[C@@H](O[C@H]2[C@H](O)[C@@H](O)C(O)O[C@@H]2CO)[C@H](O)[C@@H](O)[C@@H]1O` (stereo partly drawn) [cellobiose]: 15.1 ± 0.73 mM and 0.34 ± 0.08 mM.
The matching figures for `OCc1ccccc1O[C@@H]1O[C@H](CO)[C@@H](O)[C@H](O)[C@H]1O` [salicin]: 1.01 ± 0.18 mM and 19.6 ± 2.06 mM.
